Earlier results in patent US9629875B2, “Clostridium difficile sporicidal compositions” (Microdermis Corporation, priority 2014, dated 2017).

Tested on: Bacillus subtilis
Details: 0.1% L-alanine in the absence of sporicidal agents, after 4 hours

## C[C@H](N)C(=O)O [L-alanine]
  colony-forming unit (CFU) relative count: 116%
